“And” between values parts separate entries of the source, which are not always exact repeats. Equal entries are not always repeated.

As usually defined, the EC50 is the concentration that produces a half-maximal response.

For the test, the system named is 3T3-L1 adipocytes. The experiment in a line: [3H]-2-deoxy-glucose uptake by adipocytes. It counts as cell-based, Murine. As to the method:
To determine if one mechanism for glyceollins to improve the oral glucose challenge in a prediabetic model is by increasing the glucose uptake by fat, glyceollin pharmacology was studied in 3T3-L1 cells. Murine preadipocytes (Zen-Bio Inc.) were cultured using PM-1-L1 medium (Zen-Bio Inc.) containing Dulbecco's modified Eagle's medium (DMEM)/Ham's F-10 medium (1:1, v/v), HEPES 15 mM (pH 7.4), 10% (v/v) fetal bovine serum, penicillin (100 U/ml), streptomycin ([…]), and amphotericin B (0.25 μg/ml) in a humidified atmosphere (5% CO2/95% air). After 3-4 days, confluent cells were placed in differentiation medium (DM-2-L1, Zen-Bio Inc.) containing DMEM/Ham's F-10 medium (1:1, v/v), HEPES 15 mM (pH 7.4), 3% (v/v) fetal bovine serum, biotin (33 μM), pantothenate (17 μM), human insulin (100 nM), dexamethasone (1 μM), penicillin (100 U/ml), streptomycin (100 μg/ml), amphotericin B (0.25 μg/ml), isobutylmethylxanthine ([…]) and PPARγ agonist (10 μM) and further incubated in the humidified atmosphere for 3 days. […]
Adipocytes were rinsed in sterile, fresh KRH buffer (HEPES pH=7.4, 1 mM CaCl2, 1.2 mM MgSO4, 1 mM KH2PO4, 1.4 mM KCl, […], 130 mM NaCl), and then preincubated for 24 h in KRH buffer. […] The vials were mixed and counted for 10 min in an Applied Biosystems 1100 liquid scintillation counter using the factory preset window to detect tritium.

On to insulin, for which, under “30 min exposure at 37° C., 0.3-300 nM, n=6, read-out: EC50 of insulin-mediated glucose uptake”, the EC50 is 1.9 nM and 1.92 nM. Also, under “insulin 0.3 nM-300 nM”, the “maximal stimulation of glucose uptake relative to basal” value is “about 3 times”.

These data come from US20140275233A1, “ACTIVATED SOY POD FIBER” (priority 2013, published 2014).
